Several values for one entry are separate records, joined by “and”; a condition that tells them apart may be missing. Equal entries are not always repeated.
Legend:
[1] = test system: carrageenan induced paw edema; test: carrageenan-induced rat paw edema; format: in vivo; settings: 10 mg/kg indomethacin mol equivalent i.p.; for Mean Edema Thickness: ± standard error
Description: Anti-inflammatory activity screening
The anti-inflammatory activity of the tested compounds was determined in-vivo by the acute carrageenan induced paw edema standard method in rats. Adult Wister rats of either sex (pregnant female animals were excluded) weighing 120–150 g were divided into 19 groups of 6 animals each. The tested compounds dissolved in DMSO, at a dose of 10 mg kg-1 (rat body […]
inflammation. The control group was given DMSO only. Paw edema was induced by subcutaneous injection of freshly prepared 1% solution of carrageenan in saline (0.9%, 0.1 ml per rat) into subplantar tissue of the right hind paw of rats. The thickness of the paw was measured (in mm) after successive time intervals (1, 2, 3, 4 and 24 h) and compared with the initial hind paw thickness of each rat for determining the edema thickness. Data were collected, checked, revised and analyzed (SPSS 16). Quantitative variables from normal distribution were expressed as means ± SE “standard error”. The anti-inflammatory activity was expressed as percentage inhibition of edema thickness in treated animals in comparison with the control group according to eqn. (1) […]
% Inhibition of edema= Vc-Vt x 100 … .. (1)
Where, Vc and Vt are the means of edema paw thickness for the control and tested compound treated animal groups, respectively.
The potency of the tested compounds was expressed as % inhibition of edema thickness […]
% Potency = % inhibition of edema for the tested compound treated group x 100 … . (2)

[2] = test system: acetic acid-induced abdominal writhing; test: acetic acid-induced abdominal writhing assay (peripheral analgesic); format: in vivo, mice; settings: 10 mg/kg indomethacin mol equivalent i.p.; for Writing Reflex ± SE: number of writhing counted for 30 min
Description: Peripheral analgesic testing
Peripheral analgesic activity was measured by the standard acetic acid-induced writhing […]
One hour after intraperitoneally (i,p.) administration of 10 mg kg−1 (mice body weight) […]
distilled/sterile water by the aid of two drops of Tween 80, each mouse was injected with 0.1 ml of 1% acetic acid solution i.p. The control group animals were given sterile/distilled water only with few drops of Tween 80. Starting 5 min after the acetic acid injection, the number of muscular contractions in each mouse was counted for 30 min. A significant reduction in the number of writhing by any test compound as compared to control animals was considered as a positive analgesic response. Percentage protection was calculated according to equ. (3), where n stands for the average number of writhing in the control group and n' is the average number of writhing in the treated group. The % potency was calculated by equ. (4) (Table 2).
% Inhibition/protection = n−n′ x100 … . (3)

hot plate latency = test: hot plate assay (central analgesic); format: in vivo, mice; settings: 10 mg/kg indomethacin mol equivalent i.p.; for Latency Period ± SE: cutoff 15 sec
Description: The % potency was calculated by equ. (4) (Table 2). […]
% Potency = % protection of the tested compound x 100 ……. (4) […]
Central analgesic (hot plate) testing
The standard hot plate technique was undertaken by in vivo standard hot plate test [ 1,2]. […]
by placing them on a hot plate maintained at 55 ± 1 °C, 30 min. […]
suspended in sterile/distilled water by the ai d of two drops of Tween 80, and recording the reaction time in seconds for forepaw licking or jumping. The control group animals were given sterile/distilled water only with few drops of Tween 80. The maximum cutoff time was chosen as 15 sec. to prevent tissue damage. Response latencies were measured 30, 60, 90 and 120 min. after the application. The % protection was calculated by equ. ( 5) where, T1, T0 are the latency time mean of the tested compound and control group, respectively (Table 3).

gastric mucosa = settings: both, albino, mouse, in vivo, 3 days; for % Incidence of Ulcer Divided by 10 / Average Severity of Ulcer / Average of Ulcer Number / Number of Animals with Ulcer: po, 10 mg/kg
Description: The ulcerogenic liability was determined in albino mice obeying the standard method.
Animals of either sex (pregnant females were excluded) weighing 20 –25 g were divided into 8 groups of 6 animals each. The animals fasted 18 h before drug administration.
80 administered orally for three successive days to fasted animals at a dose of 10 mg kg-1 (animal […]
The control group animals were given water only with few drops of Tween 80. The animals were sacrificed by cervical dislocation and the stomach was removed, opened along the greater curvature and rinsed with saline. The gastric mucosa was examined with a magnifying lens (10x) for the presence of lesions and ero sions. The ulcer index was calculated (Table 4) and the degree of ulcerogenic effect was expressed in terms of.
1. The percentage incidence of ulcers divided by 10.
2. Average number of ulcers per stomach.
3. Average severity of ulcers.
The ulcer index is the value that resulted from the sum of the above three values. […]

mice = test: toxicological bioassay; format: in vivo; settings: five times the anti-inflammatory dose (50 mg/kg indomethacin mol equivalent); recorded 24 h post-administration
Description: Five times the anti-inflammatory dose was orally administrated. […]
5a, 5b, 5d, 5e) was determined utilizing the standard method in mice. Albino mice weighing 20–25 g were divided into 6 groups of 6 mice each. Administrations of the tested compounds dissolved in distilled water by the aid of few drops of Tween 80 were given intraperitoneally in 50 […]
inflammatory dosage). The control group was given water only with few drops of Tween 80. The toxic symptoms and mortality rates were recorded 24 h post -administration in each group.

[3] = test system: LPS-stimulated RAW264.7 macrophages; test: NO production of LPS-induced RAW264.7 (Griess method); format: cell-based; settings: 40 μg/mL; LPS 10 ng/mL; LPS only 22 μM, baseline 12.8 μM
IL-6 mRNA = settings: 40 μg/mL; in comparison to LPS-stimulated cells only
Description: (§1) For this purpose, the mRNA levels of IL-6, TNF-α, and iNOS were measured using real-time qPCR (RT-qPCR).
(§2) Treatment of LPS-stimulated RAW264.7 macrophages was done with 40 µg/mL of the isolated
(§3) Evaluation of inflammatory mRNA expression levels
(§4) Inflammatory mRNA expression levels were evaluated using RT-qPCR (Applied Biosystems, CA, USA). Total RNA was extracted by lysing RAW264.7 cells using Qiazol Lysis Reagent. The extracted RNA was used to synthesize cDNA using RevertAid First Strand cDNA synthesis kit according to manufacturer’s protocol. The cDNA was then added with forward and reverse
(§5) primers, nuclease free water and maxima SYBR green mix (Thermo Fisher Scientific, MA, USA).
(§6) The inflammation-related genes of mRNA expression levels are as follows: IL-6, TNF-α, and
(§7) iNOS. All expression was normalized to GAPDH (endogenous control) and relative fold mRNA
(§8) expression levels were calculated using the comparative 2 −ΔΔCT method. The PCR reaction consists
(§9) of initiation stage at 95 °C for 10 min, after that 40 PCR cycles of d enaturation stage for 15 s at 95
(§10) °C and annealing and extension for 1 min at 60 °C.

iNOS mRNA = settings: 40 μg/mL; in comparison to LPS-stimulated cells only
Description: as §1, §2, §3, §4, §5, §6, §7, §8, §9, §10

TNF-α mRNA = settings: 40 μg/mL; in comparison to LPS-stimulated cells only
Description: as §1, §2, §3, §4, §5, §6, §7, §8, §9, §10

SMILES	% Inhibition of Edema ± Standard Error ([1]; 1 h) [%]	% Inhibition of Edema ± Standard Error ([1]; 2 h) [%]	% Inhibition of Edema ± Standard Error ([1]; 3 h, 10 mg/kg)	Mean Edema Thickness ([1]; 3 h) [mm]	% Inhibition of Edema ± Standard Error ([1]; 4 h) [%]	% Inhibition/Protection [2] [%]	Writing Reflex ± SE [2]	% Protection (hot plate latency; after 30 min) [%]	Latency Period ± SE (hot plate latency; after 30 min) [s]	% Protection (hot plate latency; after 60 min) [%]	Latency Period ± SE (hot plate latency; after 60 min) [s]	% Protection (hot plate latency; after 90 min) [%]	Latency Period ± SE (hot plate latency; after 90 min) [s]	% Protection (hot plate latency; after 120 min) [%]	Latency Period ± SE (hot plate latency; after 120 min) [s]	Ulcer Index (gastric mucosa)	% Incidence of Ulcer Divided by 10 (gastric mucosa)	Average Severity of Ulcer (gastric mucosa)	Average of Ulcer Number (gastric mucosa)	Number of Animals with Ulcer (gastric mucosa)	also measured
CC(C)Cc1ccc(C(C)C(=O)OCc2cn(-c3ccccc3Cl)nn2)cc1 (stereo not shown) [Compound 5a, (1-(2-Chlorophenyl)-1H-1,2,3-triazol-4-yl)methyl 2-(4-isobutylphenyl)propanoate]	29.7 ± 1.1	31.3 ± 0.8	95.4% and 95.4 ± 0.7%	0.033 ± 0.01	45.7 ± 1.4	83.3	6.7 ± 0.7	79.2	11.97 ± 2.5	71.5	12.47 ± 2.0	34.5	11.98 ± 2.6	54.5	13.92 ± 2.3	0	0	0	0	0	% Inhibition of Edema ± Standard Error ([1]; 24 h, 10 mg/kg): 22.5% and 22.5 ± 0.9%; Mean Edema Thickness ([1]; 24 h): 0.713 ± 0.02 mm; toxic symptoms or mortality (mice): No toxic symptoms or mortality; LPS-stimulated NO production (nitrite) [3]: 17.7 µM; reduction in IL-6 mRNA levels (IL-6 mRNA): 61.3%; reduction in iNOS mRNA levels (iNOS mRNA): 34%; reduction in TNF-α mRNA levels (TNF-α mRNA): 88%
CC(C)Cc1ccc(C(C)C(=O)OCc2cn(-c3ccc(Cl)cc3)nn2)cc1 (stereo not shown) [Compound 5b, (1-(4-Chlorophenyl)-1H-1,2,3-triazol-4-yl)methyl 2-(4-isobutylphenyl)propanoate]	58.3 ± 0.7	69.6 ± 2.1	94.5% and 94.5 ± 0.4%	0.040 ± 0.01	66.8 ± 1.6	87.5	5.0 ± 0.9	84.1	12.30 ± 1.6	41.3	10.27 ± 1.9	25.0	11.14 ± 1.5	27.1	11.45 ± 2.0	0	0	0	0	0	% Inhibition of Edema ± Standard Error ([1]; 24 h): 8.4 ± 1.2%; toxic symptoms or mortality (mice): No toxic symptoms or mortality; LPS-stimulated NO production (nitrite) [3]: 4.88 ± 1 µM; reduction in IL-6 mRNA levels (IL-6 mRNA): 42%; reduction in TNF-α mRNA levels (TNF-α mRNA): 82%
